Assay [1] concerns the target PIK3CD (Human) (UniProt O00329). Description: Enzyme Assay.
The target in assay [2] is PIK3CG (human) (UniProt P48736). Description: Enzyme Assay.
Chain of PIK3CG (human) (P48736 whole entry, looked up): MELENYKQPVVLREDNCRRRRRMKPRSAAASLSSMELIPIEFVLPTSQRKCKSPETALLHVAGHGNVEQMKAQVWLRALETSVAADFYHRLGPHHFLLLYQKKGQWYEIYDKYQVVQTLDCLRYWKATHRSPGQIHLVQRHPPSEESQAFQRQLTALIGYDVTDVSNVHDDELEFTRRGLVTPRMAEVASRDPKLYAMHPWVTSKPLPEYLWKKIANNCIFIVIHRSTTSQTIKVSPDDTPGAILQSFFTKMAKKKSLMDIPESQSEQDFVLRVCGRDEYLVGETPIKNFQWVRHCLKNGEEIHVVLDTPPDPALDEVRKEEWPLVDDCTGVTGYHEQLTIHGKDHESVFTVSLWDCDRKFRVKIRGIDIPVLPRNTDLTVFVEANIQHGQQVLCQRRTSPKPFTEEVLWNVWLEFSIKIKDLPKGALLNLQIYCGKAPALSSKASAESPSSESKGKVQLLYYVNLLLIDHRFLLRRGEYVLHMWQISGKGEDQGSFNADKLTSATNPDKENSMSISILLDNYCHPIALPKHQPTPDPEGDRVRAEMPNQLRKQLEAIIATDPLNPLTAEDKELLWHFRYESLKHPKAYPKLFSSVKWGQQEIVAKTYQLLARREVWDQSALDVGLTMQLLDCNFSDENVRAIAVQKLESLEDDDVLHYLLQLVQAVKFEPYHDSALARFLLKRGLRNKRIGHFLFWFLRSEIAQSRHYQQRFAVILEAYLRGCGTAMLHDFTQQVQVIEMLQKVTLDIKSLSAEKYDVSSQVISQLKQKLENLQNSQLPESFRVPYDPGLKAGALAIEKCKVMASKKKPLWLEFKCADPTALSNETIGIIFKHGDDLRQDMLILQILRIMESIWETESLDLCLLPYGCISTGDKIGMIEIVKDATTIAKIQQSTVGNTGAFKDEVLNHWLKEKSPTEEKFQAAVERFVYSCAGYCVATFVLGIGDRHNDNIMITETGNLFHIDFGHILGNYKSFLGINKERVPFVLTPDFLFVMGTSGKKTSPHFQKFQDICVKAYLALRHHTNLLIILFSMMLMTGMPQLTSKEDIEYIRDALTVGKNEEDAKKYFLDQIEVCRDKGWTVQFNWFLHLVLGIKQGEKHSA

Chain of PIK3CD (Human) (O00329 whole entry, looked up): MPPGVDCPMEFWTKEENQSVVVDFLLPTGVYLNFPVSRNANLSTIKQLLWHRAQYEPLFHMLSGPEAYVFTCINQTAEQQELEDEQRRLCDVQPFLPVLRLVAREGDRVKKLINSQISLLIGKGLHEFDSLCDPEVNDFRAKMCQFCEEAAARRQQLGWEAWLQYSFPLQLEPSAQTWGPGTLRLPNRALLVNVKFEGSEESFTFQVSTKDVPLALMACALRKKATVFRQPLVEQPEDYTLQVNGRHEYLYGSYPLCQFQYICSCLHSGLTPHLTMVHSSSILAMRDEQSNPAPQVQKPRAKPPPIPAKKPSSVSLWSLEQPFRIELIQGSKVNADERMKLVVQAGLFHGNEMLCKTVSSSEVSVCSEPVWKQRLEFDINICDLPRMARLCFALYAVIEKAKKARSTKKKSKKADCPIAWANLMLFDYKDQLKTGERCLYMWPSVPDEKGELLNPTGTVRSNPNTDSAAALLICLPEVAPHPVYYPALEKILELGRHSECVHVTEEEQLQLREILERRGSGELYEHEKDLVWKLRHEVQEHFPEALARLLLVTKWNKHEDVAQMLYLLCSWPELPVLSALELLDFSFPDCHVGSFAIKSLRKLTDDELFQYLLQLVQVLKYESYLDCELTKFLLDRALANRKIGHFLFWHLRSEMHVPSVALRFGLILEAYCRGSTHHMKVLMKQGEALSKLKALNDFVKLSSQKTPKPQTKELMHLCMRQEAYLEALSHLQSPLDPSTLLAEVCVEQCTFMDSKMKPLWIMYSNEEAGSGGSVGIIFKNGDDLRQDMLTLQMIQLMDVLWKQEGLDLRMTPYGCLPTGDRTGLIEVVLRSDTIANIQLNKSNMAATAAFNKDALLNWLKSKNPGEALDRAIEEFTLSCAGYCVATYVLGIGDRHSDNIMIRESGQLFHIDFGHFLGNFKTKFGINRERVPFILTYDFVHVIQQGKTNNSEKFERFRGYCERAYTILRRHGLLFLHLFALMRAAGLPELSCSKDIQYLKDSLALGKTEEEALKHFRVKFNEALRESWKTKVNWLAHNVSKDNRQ

As to `CCC(Nc1nc(N)ncc1-c1cncc(S(=O)(=O)Nc2ccccc2F)c1)c1nc2cccc(F)c2c(=O)n1-c1ccccc1` (configuration not stated), the IC50 in assay [1] was less than 20 nM; in assay [2], 20 to 100 nM.
The matching figures for `CCC(Nc1nc(N)ncc1-c1cncc(S(=O)(=O)C(C)C)c1)c1nc2cccc(F)c2c(=O)n1-c1ccccc1` (configuration not stated): 20 to 100 nM and 100 to 1000 nM.
In turn, `CCC(Nc1nc(N)nc(C)c1/C=C/C(=O)NC(C)C)c1nc2cccc(C)c2c(=O)n1-c1ccccc1` (configuration not stated) returned an IC50 in assay [1] of 10 to 100 nM.
As to `CCC(Nc1nc(N)nc(C)c1/C=C/C(=O)Nc1cccc(C)n1)c1nc2cccc(C)c2c(=O)n1-c1ccccc1` (configuration not stated), the IC50 in assay [1] was less than 10 nM.
On the same count and under the same terms, the result for `CCC(Nc1nc(N)nc(C)c1/C=C/C(=O)N1CCOCC1)c1nc2cccc(C)c2c(=O)n1-c1ccccc1` (configuration not stated) reads less than 10 nM; that for `CCC(Nc1nc(N)nc(C)c1/C=C/C(=O)Nc1ccccn1)c1nc2cccc(C)c2c(=O)n1-c1ccccc1` (configuration not stated), less than 10 nM; that for `CCC(Nc1nc(N)nc(C)c1/C=C/C(=O)Nc1cccnc1)c1nc2cccc(C)c2c(=O)n1-c1ccccc1` (configuration not stated), less than 10 nM.
Turning to `CCC(Nc1nc(N)ncc1-c1cncc(S(=O)(=O)N2CCCC2)c1)c1nc2cccc(F)c2c(=O)n1-c1ccccc1` (configuration not stated), the IC50 in assay [1] and in assay [2] was less than 20 nM each time.
In assay [1], `CCC(Nc1nc(N)nc(C)c1/C=C/C(=O)N1CCNCC1)c1nc2cccc(C)c2c(=O)n1-c1ccccc1` (configuration not stated) gave an IC50 of 10 to 100 nM.
As to `CCC(Nc1nc(N)ncc1-c1cncc(S(N)(=O)=O)c1)c1nc2cccc(F)c2c(=O)n1-c1ccccc1` (configuration not stated), the IC50 in assay [1] and in assay [2] was 20 to 100 nM each time.
Consider `CCC(Nc1nc(N)nc(C)c1/C=C/C(=O)NC)c1nc2cccc(C)c2c(=O)n1-c1ccccc1` (configuration not stated), for which the IC50 in assay [1] was less than 10 nM.
On the same count and under the same terms, the result for `CCC(Nc1nc(N)nc(C)c1/C=C/C(=O)Nc1nccs1)c1nc2cccc(C)c2c(=O)n1-c1ccccc1` (configuration not stated) reads less than 10 nM.
Take `CCC(Nc1nc(N)ncc1-c1cncc(S(=O)(=O)Nc2ccccc2C)c1)c1nc2cccc(F)c2c(=O)n1-c1ccccc1` (configuration not stated): the IC50 was less than 20 nM in assay [1] and 100 to 1000 nM in assay [2].
The matching figures for `CCC(Nc1nc(N)nc(C)c1-c1cncc(S(N)(=O)=O)c1)c1nc2cccc(F)c2c(=O)n1-c1ccccc1` (configuration not stated): 20 to 100 nM and 100 to 1000 nM.
In assay [1], `C=Cc1c(C)nc(N)nc1NC(CC)c1nc2cccc(C)c2c(=O)n1-c1ccccc1` (configuration not stated) yielded an IC50 of 10 to 100 nM.
Regarding `CCC(Nc1nc(N)ncc1-c1cncc(S(=O)(=O)N(C)C)c1)c1nc2cccc(F)c2c(=O)n1-c1ccccc1` (configuration not stated), the IC50 in assay [1] and in assay [2] was 20 to 100 nM in each case.
`CCC(Nc1nc(N)ncc1-c1cncc(S(=O)(=O)NC(C)(C)C)c1)c1nc2cccc(C)c2c(=O)n1-c1ccccc1` (configuration not stated): the figures for the IC50 in assay [1] and in assay [2] were less than 20 nM and 20 to 100 nM, respectively.
As to `CCC(Nc1nc(N)nc(C)c1/C=C/C(=O)n1cccn1)c1nc2cccc(C)c2c(=O)n1-c1ccccc1` (configuration not stated), the IC50 in assay [1] was 10 to 100 nM.
Molecule `CCC(Nc1nc(N)nc(C)c1/C=C1\CC(=O)NC1=O)c1nc2cccc(C)c2c(=O)n1-c1ccccc1` (configuration not stated) had an IC50 in assay [1] of 10 to 100 nM.
Same read-out and setting: the result for `CCNC(=O)/C=C/c1c(C)nc(N)nc1NC(CC)c1nc2cccc(C)c2c(=O)n1-c1ccccc1` (configuration not stated) reads 10 to 100 nM.
In assay [1], `CCC(Nc1nc(N)nc(C)c1/C=C/C(N)=O)c1nc2cccc(C)c2c(=O)n1-c1ccccc1` (configuration not stated) came in with a 50% inhibitory concentration (IC50) of less than 10 nM.
For `CCC(Nc1nc(N)ncc1-c1cncc(S(=O)(=O)Nc2ccc(F)c(Cl)c2)c1)c1nc2cccc(F)c2c(=O)n1-c1ccccc1` (configuration not stated), the figures for the half-inhibitory concentration (IC50) in assay [1] and in assay [2] were less than 20 nM and 20 to 100 nM, respectively.
Consider `CCC(Nc1nc(N)nc(C)c1/C=C/C(=O)Nc1ccncc1)c1nc2cccc(C)c2c(=O)n1-c1ccccc1` (configuration not stated), for which the IC50 in assay [1] fell in the range of 10 to 100 nM.
